Data reported in the supplement of paper PMC10307832.

What was measured:
Assay in all cases: relative viability (nuclei count vs DMSO), 5 days (fraction); higher = more cells survive
[1] = compound: COC1=CC(c2cc3ccccc3[nH]2)=N/C1=C\c1[nH]c(C)cc1C [Obatoclax] + C[C@]1(O)C[C@@H](c2nc(-c3ccc4ccc(-c5ccccc5)nc4c3)c3c(N)nccn32)C1 [Linsitinib] (partner 1 µM)
Summary of the method: (§1)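 Dosing by pin tool came one day after lung cancer cell lines were seeded in 1536-well plates, using either one drug or a fixed anchor-drug dose plus five library-drug doses (not always all listed) in √10 steps. After 5 days, nuclei were counted on 4× images. Relative viability is treated-well nuclei count divided by vehicle-well nuclei count, and values are medians of duplicate plates.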

[2] = compound: CC1=CC(=NN1)NC2=CC(=NC(=N2)/C=C/C3=CC=CC=C3)N4CCN(CC4)C + CS(=O)(=O)N1CCN(Cc2cc3nc(-c4cccc5[nH]ncc45)nc(N4CCOCC4)c3s2)CC1 [Pictilisib] (partner 1 µM)
Summary of the method: as §1

[3] = compound: CC(C)C[C@H](NC(=O)[C@H](Cc1ccccc1)NC(=O)c1cnccn1)B(O)O [Bortezomib] + NC(=O)Nc1cc(-c2cccc(F)c2)sc1C(=O)N[C@H]1CCCNC1 [AZD7762] (partner 0.2 µM)
Summary of the method: as §1

[4] = compound: CC(C)C[C@H](NC(=O)[C@H](Cc1ccccc1)NC(=O)c1cnccn1)B(O)O [Bortezomib] + Cc1nc(Nc2ncc(C(=O)Nc3c(C)cccc3Cl)s2)cc(N2CCN(CCO)CC2)n1 [Dasatinib] (partner 0.075 µM)
Summary of the method: as §1

| Cell Line | relative viability ([1]; first compound 0.01 µM) | relative viability ([1]; first compound 0.03162 µM) | relative viability ([1]; first compound 0.1 µM) | relative viability ([1]; first compound 0.3162 µM) | relative viability ([1]; first compound 1 µM) | relative viability ([2]; first compound 0.08 µM) | relative viability ([2]; first compound 0.253 µM) | relative viability ([2]; first compound 0.8 µM) | relative viability ([2]; first compound 2.53 µM) | relative viability ([2]; first compound 8 µM) | relative viability ([3]; first compound 0.0002 µM) | relative viability ([3]; first compound 0.000632 µM) | relative viability ([3]; first compound 0.002 µM) | relative viability ([3]; first compound 0.006325 µM) | relative viability ([3]; first compound 0.02 µM) | relative viability ([4]; first compound 0.0002 µM) | relative viability ([4]; first compound 0.000632 µM) | relative viability ([4]; first compound 0.002 µM) | relative viability ([4]; first compound 0.006325 µM) | relative viability ([4]; first compound 0.02 µM) |
| --- | --- | --- | --- | --- | --- | --- | --- | --- | --- | --- | --- | --- | --- | --- | --- | --- | --- | --- | --- | --- |
| NCI-H727 | 0.372 | 0.28 | 0.343 | 0.267 | 0.231 | 0.357 | 0.298 | 0.34 | 0.199 | 0.153 | 0.631 | 0.611 | 0.688 | 0.698 | 0.595 | 0.369 | 0.38 | 0.415 | 0.184 | 0.147 |
| NCI-H1944 | 1.1 | 1.2 | 1.27 | 1.19 | 1.3 | 0.317 | 0.34 | 0.348 | 0.281 | 0.223 | 0.508 | 0.511 | 0.637 | 0.295 | 0.166 | 0.225 | 0.212 | 0.222 | 0.214 | 0.137 |
| NCI-H1437 | 1.01 | 0.988 | 0.979 | 0.912 | 0.705 | 0.57 | 0.446 | 0.416 | 0.271 | 0.0592 | 1.09 | 1.11 | 1.04 | 0.496 | 0.194 | 0.335 | 0.374 | 0.486 | 0.129 | 0.11 |
| NCI-H441 | 0.683 | 0.551 | 0.394 | 0.52 | 0.435 | 0.463 | 0.554 | 0.265 | 0.172 | 0.0803 | 1.04 | 1.09 | 0.754 | 0.117 | 0.134 | 0.646 | 0.507 | 0.282 | 0.136 | 0.119 |
| EMC-BAC-2 | 0.796 | 0.817 | 0.827 | 0.797 | 0.875 | 0.507 | 0.589 | 0.468 | 0.325 | 0.154 | 1.09 | 1.04 | 1.04 | 0.573 | 0.436 | 0.313 | 0.318 | 0.494 | 0.157 | 0.188 |
| NCI-H647 | 1.14 | 1.13 | 1.11 | 0.317 | 0.254 | 0.438 | 0.48 | 0.377 | 0.0644 | 0.051 | 0.405 | 0.447 | 0.419 | 0.0227 | 0.0188 | 0.203 | 0.156 | 0.188 | 0.0197 | 0.017 |
| CAL-12T | 0.646 | 0.773 | 0.919 | 0.809 | 0.526 | 0.335 | 0.426 | 0.48 | 0.187 | 0.147 | 0.608 | 0.596 | 0.602 | 0.576 | 0.271 | 0.538 | 0.347 | 0.53 | 0.119 | 0.0844 |
| NCI-H1792 | 0.667 | 0.502 |  | 0.48 | 0.561 | 0.268 | 0.259 | 0.293 | 0.205 | 0.0778 | 0.657 | 0.693 | 0.602 | 0.344 | 0.0353 | 0.722 | 0.59 | 0.504 | 0.759 | 0.443 |
| H3255 | 0.893 | 0.976 | 0.985 | 0.884 | 0.892 | 0.507 | 0.534 | 0.497 | 0.396 | 0.205 | 0.867 |  | 0.655 | 0.517 | 0.328 | 0.332 | 0.271 | 0.299 | 0.37 | 0.28 |
| HCC-78 | 0.448 | 0.52 |  | 0.283 | 0.304 | 0.219 | 0.216 | 0.214 | 0.202 | 0.108 | 0.591 | 0.603 | 0.453 | 0.616 | 0.238 | 0.354 | 0.385 | 0.291 | 0.422 | 0.274 |
| EBC-1 | 0.771 | 0.879 | 0.922 | 0.87 | 0.65 | 0.394 | 0.451 | 0.392 | 0.143 | 0.0897 |  |  |  |  |  |  |  |  |  |  |
| NCI-H2405 | 0.936 | 1.11 |  | 0.866 | 0.87 | 0.473 | 0.32 | 0.452 | 0.179 | 0.133 | 0.699 | 0.714 | 0.919 | 0.165 | 0.159 | 0.18 | 0.188 | 0.288 | 0.16 | 0.144 |
| A549 | 0.601 | 0.55 | 0.621 | 0.635 | 0.626 | 0.464 | 0.592 | 0.332 | 0.0385 | 0.0281 |  |  |  |  |  |  |  |  |  |  |
| NCI-H3122 | 1.01 | 1.02 | 1.04 | 0.97 | 1.01 | 0.588 | 0.345 | 0.659 | 0.428 | 0.291 | 0.976 | 1.09 | 1.03 | 0.784 | 0.11 | 0.878 | 0.873 | 0.901 | 0.233 | 0.0847 |
| NCI-H1563 | 1.14 | 1.15 | 1.18 | 1.26 | 0.943 | 0.624 | 0.655 | 0.584 | 0.582 | 0.355 |  |  |  |  |  | 0.448 | 0.428 | 0.411 | 0.465 | 0.455 |
| HCC-44 | 0.688 | 0.628 | 0.688 | 0.555 | 0.63 | 0.606 | 0.627 | 0.447 | 0.34 | 0.245 | 0.959 | 0.985 | 1.01 | 1.04 | 0.239 |  |  |  |  |  |
| PC-3 [JPC-3] | 0.947 | 0.936 | 0.963 | 0.989 | 0.898 | 0.763 | 0.721 | 0.706 | 0.648 | 0.579 | 0.773 | 0.829 | 0.531 | 0.225 | 0.199 | 0.961 | 0.994 | 0.991 | 0.199 | 0.106 |
